# Measurements published in PubChem BioAssay (NCI).
#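 Protocol summary: plate cells (96-well), add compound at 5 concentrations, incubate 48 h, interpolate endpoints linearly. Definition used: TGI = concentration required for complete inhibition of growth.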
# Assays:
# Experiment in all cases: NCI anticancer screen, dose series, 48 h
# SK-OV-3 ovarian = test system: SK-OV-3 ovarian
# SK-MEL-5 melanoma = test system: SK-MEL-5 melanoma
# A549 NSCLC = test system: A549 NSCLC
# OVCAR-3 ovarian = test system: OVCAR-3 ovarian
# M14 melanoma = test system: M14 melanoma
# XF 498 CNS = test system: XF 498 CNS
# NCI-H522 lung = test system: NCI-H522 lung
# HL-60(TB) leukemia = test system: HL-60(TB) leukemia
# UO-31 renal = test system: UO-31 renal
# LOX IMVI melanoma = test system: LOX IMVI melanoma
# LXFL 529 NSCLC = test system: LXFL 529 NSCLC
# EKVX NSCLC = test system: EKVX NSCLC
# HCT-15 colon = test system: HCT-15 colon
# MALME-3M melanoma = test system: MALME-3M melanoma
# U251 CNS = test system: U251 CNS
# SF-295 CNS = test system: SF-295 CNS
# OVCAR-5 ovarian = test system: OVCAR-5 ovarian
# SR leukemia = test system: SR leukemia
# RXF-631 renal = test system: RXF-631 renal
# SN12C renal = test system: SN12C renal
# CCRF-CEM leukemia = test system: CCRF-CEM leukemia
# KM12 colon = test system: KM12 colon
# M19-MEL melanoma = test system: M19-MEL melanoma
# SK-MEL-28 melanoma = test system: SK-MEL-28 melanoma
# KM20L2 colon = test system: KM20L2 colon
# SW-620 colon = test system: SW-620 colon
# SNB-78 CNS = test system: SNB-78 CNS
# OVCAR-8 ovarian = test system: OVCAR-8 ovarian
# A498 renal = test system: A498 renal
# MOLT-4 leukemia = test system: MOLT-4 leukemia
# K-562 leukemia = test system: K-562 leukemia
# NCI-H226 lung = test system: NCI-H226 lung
# CAKI-1 renal = test system: CAKI-1 renal
# DMS 273 small cell lung = test system: DMS 273 small cell lung
# RXF 393 renal = test system: RXF 393 renal
# NCI-H23 lung = test system: NCI-H23 lung
# HOP-62 NSCLC = test system: HOP-62 NSCLC
# UACC-62 melanoma = test system: UACC-62 melanoma
# DMS 114 small cell lung = test system: DMS 114 small cell lung
# 786-0 renal = test system: 786-0 renal
# HCT-116 colon = test system: HCT-116 colon
# SNB-19 CNS = test system: SNB-19 CNS
# ACHN renal = test system: ACHN renal
# OVCAR-4 ovarian = test system: OVCAR-4 ovarian
# SNB-75 CNS = test system: SNB-75 CNS
# HT29 colon = test system: HT29 colon
# RPMI-8226 leukemia = test system: RPMI-8226 leukemia
# UACC-257 melanoma = test system: UACC-257 melanoma
# COLO 205 colon = test system: COLO 205 colon
# SF-268 CNS = test system: SF-268 CNS
# SK-MEL-2 melanoma = test system: SK-MEL-2 melanoma
# SF-539 CNS = test system: SF-539 CNS
# IGROV1 ovarian = test system: IGROV1 ovarian
# DLD-1 colon = test system: DLD-1 colon
# HCC-2998 colon = test system: HCC-2998 colon
# NCI-H460 lung = test system: NCI-H460 lung
# HOP-92 NSCLC = test system: HOP-92 NSCLC
# TK-10 renal = test system: TK-10 renal
structure (smiles),measurement,setting,value
CC[C@H]1[C@@H](C)C=C[C@@H](C)N1S(=O)(=O)c1ccc(C)cc1,TGI,SK-OV-3 ovarian,> 100 µM
same,TGI,SK-MEL-5 melanoma,> 100 µM
same,TGI,A549 NSCLC,> 100 µM
same,TGI,OVCAR-3 ovarian,> 100 µM
same,TGI,M14 melanoma,> 100 µM
same,TGI,XF 498 CNS,42.4 µM
same,TGI,NCI-H522 lung,> 100 µM
same,TGI,HL-60(TB) leukemia,52 µM
same,TGI,UO-31 renal,27.5 µM
same,TGI,LOX IMVI melanoma,> 100 µM
same,TGI,LXFL 529 NSCLC,> 100 µM
same,TGI,EKVX NSCLC,> 100 µM
same,TGI,HCT-15 colon,> 100 µM
same,TGI,MALME-3M melanoma,> 100 µM
same,TGI,U251 CNS,> 100 µM
same,TGI,SF-295 CNS,> 100 µM
same,TGI,OVCAR-5 ovarian,> 100 µM
same,TGI,SR leukemia,> 100 µM
same,TGI,RXF-631 renal,30.4 µM
same,TGI,SN12C renal,> 100 µM
same,TGI,CCRF-CEM leukemia,> 100 µM
same,TGI,KM12 colon,> 100 µM
same,TGI,M19-MEL melanoma,> 100 µM
same,TGI,SK-MEL-28 melanoma,> 100 µM
same,TGI,KM20L2 colon,> 100 µM
same,TGI,SW-620 colon,> 100 µM
same,TGI,SNB-78 CNS,> 100 µM
same,TGI,OVCAR-8 ovarian,> 100 µM
same,TGI,A498 renal,> 100 µM
same,TGI,MOLT-4 leukemia,> 100 µM
same,TGI,K-562 leukemia,> 100 µM
same,TGI,NCI-H226 lung,> 100 µM
same,TGI,CAKI-1 renal,> 100 µM
same,TGI,DMS 273 small cell lung,> 100 µM
same,TGI,RXF 393 renal,> 100 µM
same,TGI,NCI-H23 lung,> 100 µM
same,TGI,HOP-62 NSCLC,> 100 µM
same,TGI,UACC-62 melanoma,> 100 µM
same,TGI,DMS 114 small cell lung,34.9 µM
same,TGI,786-0 renal,> 100 µM
same,TGI,HCT-116 colon,> 100 µM
same,TGI,SNB-19 CNS,35.3 µM
same,TGI,ACHN renal,> 100 µM
same,TGI,OVCAR-4 ovarian,> 100 µM
same,TGI,SNB-75 CNS,> 100 µM
same,TGI,HT29 colon,> 100 µM
same,TGI,RPMI-8226 leukemia,> 100 µM
same,TGI,UACC-257 melanoma,> 100 µM
same,TGI,COLO 205 colon,> 100 µM
same,TGI,SF-268 CNS,> 100 µM
same,TGI,SK-MEL-2 melanoma,52.9 µM
same,TGI,SF-539 CNS,> 100 µM
CN1C[C@@H]2CC(=O)CC[C@@H]2C[C@H]1C#N,TGI,SK-OV-3 ovarian,> 100 µM
same,TGI,SK-MEL-5 melanoma,> 100 µM
same,TGI,A549 NSCLC,> 100 µM
same,TGI,IGROV1 ovarian,> 100 µM
same,TGI,OVCAR-3 ovarian,> 100 µM
same,TGI,DLD-1 colon,> 100 µM
same,TGI,M14 melanoma,> 100 µM
same,TGI,XF 498 CNS,> 100 µM
same,TGI,NCI-H522 lung,> 100 µM
same,TGI,HL-60(TB) leukemia,> 100 µM
same,TGI,UO-31 renal,> 100 µM
same,TGI,LOX IMVI melanoma,> 100 µM
same,TGI,HCC-2998 colon,> 100 µM
same,TGI,LXFL 529 NSCLC,> 100 µM
same,TGI,HCT-15 colon,> 100 µM
same,TGI,MALME-3M melanoma,> 100 µM
same,TGI,SF-295 CNS,> 100 µM
same,TGI,NCI-H460 lung,> 100 µM
same,TGI,OVCAR-5 ovarian,> 100 µM
same,TGI,RXF-631 renal,> 100 µM
same,TGI,SN12C renal,> 100 µM
same,TGI,CCRF-CEM leukemia,> 100 µM
same,TGI,KM12 colon,> 100 µM
same,TGI,HOP-92 NSCLC,> 100 µM
same,TGI,KM20L2 colon,> 100 µM
same,TGI,SW-620 colon,> 100 µM
same,TGI,OVCAR-8 ovarian,> 100 µM
same,TGI,A498 renal,> 100 µM
same,TGI,MOLT-4 leukemia,> 100 µM
same,TGI,K-562 leukemia,> 100 µM
same,TGI,NCI-H226 lung,> 100 µM
same,TGI,CAKI-1 renal,> 100 µM
same,TGI,HOP-62 NSCLC,> 100 µM
same,TGI,UACC-62 melanoma,> 100 µM
same,TGI,DMS 114 small cell lung,> 100 µM
same,TGI,786-0 renal,> 100 µM
same,TGI,HCT-116 colon,> 100 µM
same,TGI,SNB-19 CNS,> 100 µM
same,TGI,ACHN renal,> 100 µM
same,TGI,OVCAR-4 ovarian,> 100 µM
same,TGI,SNB-75 CNS,> 100 µM
same,TGI,HT29 colon,> 100 µM
same,TGI,RPMI-8226 leukemia,> 100 µM
same,TGI,UACC-257 melanoma,> 100 µM
same,TGI,SF-268 CNS,> 100 µM
same,TGI,SK-MEL-2 melanoma,> 100 µM
Cc1ccc(C)c(N2C(=O)C(=O)C(c3nc4ccccc4s3)C(=O)C2=O)c1,TGI,SK-OV-3 ovarian,> 100 µM
same,TGI,SK-MEL-5 melanoma,> 100 µM
same,TGI,A549 NSCLC,> 100 µM
same,TGI,IGROV1 ovarian,> 100 µM
same,TGI,OVCAR-3 ovarian,> 100 µM
same,TGI,DLD-1 colon,> 100 µM
same,TGI,M14 melanoma,> 100 µM
same,TGI,NCI-H522 lung,> 100 µM
same,TGI,HL-60(TB) leukemia,> 100 µM
same,TGI,UO-31 renal,> 100 µM
same,TGI,LOX IMVI melanoma,> 100 µM
same,TGI,HCC-2998 colon,> 100 µM
same,TGI,LXFL 529 NSCLC,> 100 µM
same,TGI,EKVX NSCLC,> 100 µM
same,TGI,HCT-15 colon,> 100 µM
same,TGI,MALME-3M melanoma,> 100 µM
same,TGI,U251 CNS,> 100 µM
same,TGI,SF-295 CNS,> 100 µM
same,TGI,NCI-H460 lung,> 100 µM
same,TGI,OVCAR-5 ovarian,> 100 µM
same,TGI,SN12C renal,> 100 µM
same,TGI,CCRF-CEM leukemia,> 100 µM
same,TGI,KM12 colon,> 100 µM
same,TGI,M19-MEL melanoma,> 100 µM
same,TGI,SK-MEL-28 melanoma,> 100 µM
same,TGI,HOP-92 NSCLC,> 100 µM
same,TGI,KM20L2 colon,> 100 µM
same,TGI,SW-620 colon,> 100 µM
same,TGI,SNB-78 CNS,> 100 µM
same,TGI,OVCAR-8 ovarian,> 100 µM
same,TGI,A498 renal,> 100 µM
same,TGI,MOLT-4 leukemia,> 100 µM
same,TGI,K-562 leukemia,> 100 µM
same,TGI,NCI-H226 lung,> 100 µM
same,TGI,CAKI-1 renal,> 100 µM
same,TGI,DMS 273 small cell lung,> 100 µM
same,TGI,TK-10 renal,> 100 µM
same,TGI,RXF 393 renal,> 100 µM
same,TGI,NCI-H23 lung,> 100 µM
same,TGI,HOP-62 NSCLC,> 100 µM
same,TGI,UACC-62 melanoma,> 100 µM
same,TGI,DMS 114 small cell lung,> 100 µM
same,TGI,786-0 renal,> 100 µM
same,TGI,HCT-116 colon,> 100 µM
same,TGI,SNB-19 CNS,> 100 µM
same,TGI,ACHN renal,> 100 µM
same,TGI,OVCAR-4 ovarian,> 100 µM
same,TGI,SNB-75 CNS,> 100 µM
same,TGI,HT29 colon,> 100 µM
same,TGI,RPMI-8226 leukemia,> 100 µM
same,TGI,UACC-257 melanoma,> 100 µM
same,TGI,COLO 205 colon,> 100 µM
same,TGI,SF-268 CNS,> 100 µM
same,TGI,SK-MEL-2 melanoma,> 100 µM
same,TGI,SF-539 CNS,> 100 µM
O=C(CSc1nc(-c2ccccc2)c(-c2ccccc2)[nH]1)N/N=C/c1ccc([N+](=O)[O-])cc1,TGI,SK-OV-3 ovarian,35.3 µM
same,TGI,SK-MEL-5 melanoma,31.1 µM
same,TGI,A549 NSCLC,57.5 µM
same,TGI,IGROV1 ovarian,33.8 µM
same,TGI,OVCAR-3 ovarian,30 µM
same,TGI,DLD-1 colon,38.5 µM
same,TGI,M14 melanoma,31.1 µM
same,TGI,XF 498 CNS,28 µM
same,TGI,NCI-H522 lung,28.9 µM
same,TGI,HL-60(TB) leukemia,71.1 µM
same,TGI,UO-31 renal,29.5 µM
same,TGI,LOX IMVI melanoma,30.4 µM
same,TGI,LXFL 529 NSCLC,38.3 µM
same,TGI,HCT-15 colon,28.1 µM
same,TGI,MALME-3M melanoma,33.3 µM
same,TGI,U251 CNS,27.5 µM
same,TGI,SF-295 CNS,36.1 µM
same,TGI,NCI-H460 lung,43.2 µM
same,TGI,SR leukemia,> 100 µM
same,TGI,SN12C renal,31.9 µM
same,TGI,CCRF-CEM leukemia,61.3 µM
same,TGI,KM12 colon,31.6 µM
same,TGI,M19-MEL melanoma,30.8 µM
same,TGI,SK-MEL-28 melanoma,31.2 µM
same,TGI,HOP-92 NSCLC,29.3 µM
same,TGI,KM20L2 colon,23.2 µM
same,TGI,SNB-78 CNS,62.5 µM
same,TGI,OVCAR-8 ovarian,25.4 µM
same,TGI,A498 renal,29.2 µM
same,TGI,MOLT-4 leukemia,48.5 µM
same,TGI,NCI-H226 lung,32.8 µM
same,TGI,DMS 273 small cell lung,27.9 µM
same,TGI,TK-10 renal,39.4 µM
same,TGI,NCI-H23 lung,33.9 µM
same,TGI,HOP-62 NSCLC,33.7 µM
same,TGI,DMS 114 small cell lung,55.8 µM
same,TGI,786-0 renal,30.5 µM
same,TGI,HCT-116 colon,32.7 µM
same,TGI,ACHN renal,92.6 µM
same,TGI,OVCAR-4 ovarian,58.8 µM
same,TGI,SNB-75 CNS,47.8 µM
same,TGI,HT29 colon,35.8 µM
same,TGI,RPMI-8226 leukemia,52.1 µM
same,TGI,UACC-257 melanoma,36 µM
same,TGI,COLO 205 colon,30.7 µM
same,TGI,SF-268 CNS,39.2 µM
same,TGI,SK-MEL-2 melanoma,26.9 µM
same,TGI,SF-539 CNS,29.9 µM
